Data taken from patent publication US20060281700A1, “SYNERGISTIC MODULATION OF FLT3 KINASE USING AMINOPYRIMIDINES KINASE MODULATORS” (priority 2005, published 2006).

Target: T1, wild-type FLT3 phosphorylation in Baf3 FLT3 cells (Homo sapiens, UniProt P36888)
T1 sequence (P36888 27-993): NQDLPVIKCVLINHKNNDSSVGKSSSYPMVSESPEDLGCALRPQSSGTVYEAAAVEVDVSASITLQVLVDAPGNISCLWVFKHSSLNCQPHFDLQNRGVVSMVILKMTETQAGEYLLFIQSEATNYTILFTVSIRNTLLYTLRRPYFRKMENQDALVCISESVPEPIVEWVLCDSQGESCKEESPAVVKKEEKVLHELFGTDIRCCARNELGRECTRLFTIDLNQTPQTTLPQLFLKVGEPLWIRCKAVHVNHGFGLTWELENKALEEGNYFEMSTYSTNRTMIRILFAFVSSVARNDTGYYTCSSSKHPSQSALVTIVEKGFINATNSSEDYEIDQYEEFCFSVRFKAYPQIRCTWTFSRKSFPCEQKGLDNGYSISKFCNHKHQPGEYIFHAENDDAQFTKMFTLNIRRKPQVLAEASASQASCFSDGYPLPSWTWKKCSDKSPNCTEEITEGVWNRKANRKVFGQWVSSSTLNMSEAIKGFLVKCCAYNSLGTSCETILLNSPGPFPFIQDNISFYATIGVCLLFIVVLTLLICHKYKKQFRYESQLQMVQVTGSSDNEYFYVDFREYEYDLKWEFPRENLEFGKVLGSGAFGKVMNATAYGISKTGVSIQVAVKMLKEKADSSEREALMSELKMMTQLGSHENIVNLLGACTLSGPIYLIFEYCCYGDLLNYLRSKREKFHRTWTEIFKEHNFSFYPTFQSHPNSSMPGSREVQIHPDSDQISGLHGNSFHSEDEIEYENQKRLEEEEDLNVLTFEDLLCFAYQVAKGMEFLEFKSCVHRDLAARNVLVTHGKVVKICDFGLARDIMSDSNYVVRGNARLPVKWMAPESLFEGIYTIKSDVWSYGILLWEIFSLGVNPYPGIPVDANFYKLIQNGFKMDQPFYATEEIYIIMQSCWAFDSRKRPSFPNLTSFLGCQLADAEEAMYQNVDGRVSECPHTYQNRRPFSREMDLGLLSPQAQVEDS
Assay: Cell-Based FLT3 Receptor Elisa
Conditions: 1 hour compound, 100 ng/mL Flt ligand 10 min; uncertainty ±20%
Protocol: Cell-Based FLT3 Receptor Elisa
Specific cellular inhibition of FLT ligand-induced wild-type FLT3 phosphorylation was measured in the following manner: Baf3 FLT3 cells overexpressing the FLT3 receptor were obtained from Dr. Michael Heinrich (Oregon Health and Sciences University). The Baf3 FLT3 cell lines were created by stable transfection of parental Baf3 cells (a murine B cell lymphoma line dependent on the cytokine IL-3 for growth) with wild-type FLT3. Cells were selected for their ability to grow in the absence of IL-3 and in the presence of FLT3 ligand.
Baf3 cells were maintained in RPMI 1640 with 10% FBS, penn/strep and 10 ng/ml FLT ligand at 37° C., 5% CO2. To measure direct inhibition of the wild-type FLT3 receptor activity and phosphorylation a sandwich ELISA method was developed similar to those developed for other RTKs (see Sadick, M D, Sliwkowski, M X, Nuijens, A, Bald, L, Chiang, N, Lofgren, J A, Wong W L T. Analysis of Heregulin-Induced ErbB2 Phosphorylation with a High-Throughput Kinase Receptor Activation Enzyme-Linked Immunsorbent Assay, Analytical Biochemistry. 1996; 235:207-214 and Baumann C A, Zeng L, Donatelli R R, Maroney A C. Development of a quantitative, high-throughput cell-based enzyme-linked immunosorbent assay for detection of colony-stimulating factor-1 receptor tyrosine kinase inhibitors. J Biochem Biophys Methods. 2004; 60:69-79.). 200 μL of Baf3FLT3 cells (1×10^6/mL) were plated in 96 well dishes in RPMI 1640 with 0.5% serum and 0.01 ng/mL IL-3 for 16 hours prior to 1 hour compound or DMSO vehicle incubation. Cells were treated with 100 ng/mL Flt ligand (R&D Systems Cat# 308-FK) for 10 min. at 37° C. Cells were pelleted, washed and lysed in 100 ul lysis buffer (50 mM Hepes, 150 mM NaCl, 10% Glycerol, 1% Triton-X-100, 10 mM NaF, 1 mM EDTA, 1.5 mM MgCl2, 10 mM NaPyrophosphate) supplemented with phosphatase (Sigma Cat# P2850) and protease inhibitors (Sigma Cat #P8340). Lysates were cleared by centrifugation at 1000×g for 5 minutes at 4° C. Cell lysates were transferred to white wall 96 well microtiter (Costar #9018) plates coated with 50 ng/well anti-FLT3 antibody (Santa Cruz Cat# sc-480) and blocked with SeaBlock reagent (Pierce Cat#37527). Lysates were incubated at 4° C. for 2 hours. Plates were washed 3× with 200 ul/well PBS/0.1% Triton-X-100. Plates were then incubated with 1:8000 dilution of HRP-conjugated anti-phosphotyrosine antibody (Clone 4G10, Upstate Biotechnology Cat#16-105) for 1 hour at room temperature. Plates were washed 3× with 200 ul/well PBS/0.1% Triton-X-100. Signal detection with Super Signal Pico reagent (Pierce Cat#37070) was done according to manufacturer's instruction with a Berthold microplate luminometer. All data points are an average of triplicate samples. […] Inhibition and IC50 data analysis was done with GraphPad Prism using a non-linear regression fit with a multiparamater, sigmoidal dose-response (variable slope) equation.

| Compound | IC50 |
| --- | --- |
| CC(C)Oc1ccc(NC(=O)OC2CCN(c3ncnc(N)c3/C=N/OCCCN(C)C)CC2)cc1 [Number 4, (4-Isopropoxy-phenyl)-carbamic acid 1-{6-amino-5-[(3-dimethylamino-propoxyimino)-methyl]-pyrimidin-4-yl}-piperidin-4-yl ester] | 345 nM |
| CO/N=C/c1c(N)ncnc1N1CCC(NC(=O)Nc2ccc(N3CCCCC3)cc2)C1 (centres unmarked) [Number 9, 1-{1-[6-Amino-5-(methoxyimino-methyl)-pyrimidin-4-yl]-pyrrolidin-3-yl}-3-(4-piperidin-1-yl-phenyl)-urea] | 127 nM |
| CO/N=C/c1c(N)ncnc1N1CCC(NC(=O)Nc2ccc(N3CCOCC3)cc2)C1 (centres unmarked) [Number 10, 1-{1-[6-Amino-5-(methoxyimino-methyl)-pyrimidin-4-yl]-pyrrolidin-3-yl}-3-(4-morpholin-4-yl-phenyl)-urea] | 1300 nM |
| CO/N=C/c1c(N)ncnc1N1CCC(NC(=O)Nc2ccc(OC3CCC3)nc2)C1 (centres unmarked) [Number 11, 1-{1-[6-Amino-5-(methoxyimino-methyl)-pyrimidin-4-yl]-pyrrolidin-3-yl}-3-(6-cyclobutoxy-pyridin-3-yl)-urea] | 229 nM |
| CO/N=C/c1c(N)ncnc1N1CCC(NC(=O)Nc2ccc(OC3CCC3)nc2)CC1 [Number 15, 1-{1-[6-Amino-5-(methoxyimino-methyl)-pyrimidin-4-yl]-piperidin-4-yl}-3-(6-cyclobutoxy-pyridin-3-yl)-urea] | 195 nM |
| CO/N=C/c1c(N)ncnc1N1CCC(NC(=O)Nc2ccc(C3CCCCC3)cc2)C1 (centres unmarked) [Number 17, 1-{1-[6-Amino-5-(methoxyimino-methyl)-pyrimidin-4-yl]-pyrrolidin-3-yl}-3-(4-cyclohexyl-phenyl)-urea] | 299 nM |
| CO/N=C/c1c(N)ncnc1N1CCC(NC(=O)Nc2ccc(Oc3ccccc3)cc2)C1 (centres unmarked) [Number 19, 1-{1-[6-Amino-5-(methoxyimino-methyl)-pyrimidin-4-yl]-pyrrolidin-3-yl}-3-(4-phenoxy-phenyl)-urea] | 134 nM |
| CO/N=C/c1c(N)ncnc1N1CCC(NC(=O)Nc2ccc(N3CCCC3)cc2)C1 (centres unmarked) [Number 20, 1-{1-[6-Amino-5-(methoxyimino-methyl)-pyrimidin-4-yl]-pyrrolidin-3-yl}-3-(4-pyrrolidin-1-yl-phenyl)-urea] | 299 nM |
| CO/N=C/c1c(N)ncnc1N1CCC(NC(=O)Nc2ccc(OC3CCCC3)nc2)C1 (centres unmarked) [Number 21, 1-{1-[6-Amino-5-(methoxyimino-methyl)-pyrimidin-4-yl]-pyrrolidin-3-yl}-3-(6-cyclopentyloxy-pyridin-3-yl)-urea] | 99 nM |
| CO/N=C/c1c(N)ncnc1N1CCC(NC(=O)Nc2ccc(OC3CCCC3)nc2)CC1 [Number 23, 1-{1-[6-Amino-5-(methoxyimino-methyl)-pyrimidin-4-yl]-piperidin-4-yl}-3-(6-cyclopentyloxy-pyridin-3-yl)-urea] | 35 nM |
| CO/N=C/c1c(N)ncnc1N1CCC(NC(=O)Nc2ccc(Oc3ccccc3)cc2)CC1 [Number 26, 1-{1-[6-Amino-5-(methoxyimino-methyl)-pyrimidin-4-yl]-piperidin-4-yl}-3-(4-phenoxy-phenyl)-urea] | 175 nM |

Results, then the molecule that gave them:

| IC50 | Compound |
| --- | --- |
| 204 nM | CO/N=C/c1c(N)ncnc1N1CCC(OC(=O)Nc2ccc(OC(C)C)cc2)CC1 [Number 1, (4-Isopropoxy-phenyl)-carbamic acid 1-[6-amino-5-(methoxyimino-methyl)-pyrimidin-4-yl]-piperidin-4-yl ester] |
| 74 nM | CCO/N=C/c1c(N)ncnc1N1CCC(OC(=O)Nc2ccc(OC(C)C)cc2)CC1 [Number 2, (4-Isopropoxy-phenyl)-carbamic acid 1-[6-amino-5-(ethoxyimino-methyl)-pyrimidin-4-yl]-piperidin-4-yl ester] |
| 4 nM | CO/N=C/c1c(N)ncnc1N1CCC(OC(=O)Nc2ccc(C(C)C)cc2)CC1 [Number 5, (4-Isopropyl-phenyl)-carbamic acid 1-[6-amino-5-(methoxyimino-methyl)-pyrimidin-4-yl]-piperidin-4-yl ester] |
| 15 nM | CO/N=C/c1c(N)ncnc1N1CCC(CC(=O)Nc2ccc(C(C)C)cc2)C1 (centres unmarked) [Number 6, 2-{1-[6-Amino-5-(methoxyimino-methyl)-pyrimidin-4-yl]-pyrrolidin-3-yl}-N-(4-isopropyl-phenyl)-acetamide] |
| 169 nM | CO/N=C/c1c(N)ncnc1N1CCC(CC(=O)Nc2ccc(C(C)C)cc2)CC1 [Number 7, 2-{1-[6-Amino-5-(methoxyimino-methyl)-pyrimidin-4-yl]-piperidin-4-yl}-N-(4-isopropyl-phenyl)-acetamide] |
| 176 nM | CO/N=C/c1c(N)ncnc1N1CCC(NC(=O)Nc2ccc(OC(C)C)cc2)C1 (centres unmarked) [Number 8, 1-{1-[6-Amino-5-(methoxyimino-methyl)-pyrimidin-4-yl]-pyrrolidin-3-yl}-3-(4-isopropoxy-phenyl)-urea] |
| 217 nM | CO/N=C/c1c(N)ncnc1N1CCC(NC(=O)Nc2ccc(OC(C)C)cc2)CC1 [Number 12, 1-{1-[6-Amino-5-(methoxyimino-methyl)-pyrimidin-4-yl]-piperidin-4-yl}-3-(4-isopropoxy-phenyl)-urea] |
| 468 nM | CO/N=C/c1c(N)ncnc1N1CCC(NC(=O)Nc2ccc(N3CCCCC3)cc2)CC1 [Number 13, 1-{1-[6-Amino-5-(methoxyimino-methyl)-pyrimidin-4-yl]-piperidin-4-yl}-3-(4-piperidin-1-yl-phenyl)-urea] |
| 292 nM | CO/N=C/c1c(N)ncnc1N1CCC(NC(=O)Nc2ccc(N3CCOCC3)cc2)CC1 [Number 14, 1-{1-[6-Amino-5-(methoxyimino-methyl)-pyrimidin-4-yl]-piperidin-4-yl}-3-(4-morpholin-4-yl-phenyl)-urea] |
| 309 nM | CO/N=C/c1c(N)ncnc1N1CCC(NC(=O)Nc2ccc(Cl)cc2)C1 (centres unmarked) [Number 18, 1-{1-[6-Amino-5-(methoxyimino-methyl)-pyrimidin-4-yl]-pyrrolidin-3-yl}-3-(4-chloro-phenyl)-urea] |
| 40 nM | CO/N=C/c1c(N)ncnc1N1CCC(NC(=O)Nc2ccc(C3CCCCC3)cc2)CC1 [Number 22, 1-{1-[6-Amino-5-(methoxyimino-methyl)-pyrimidin-4-yl]-piperidin-4-yl}-3-(4-cyclohexyl-phenyl)-urea] |
| 78 nM | CO/N=C/c1c(N)ncnc1N1CCC(NC(=O)Nc2ccc(Cl)cc2)CC1 [Number 25, 1-{1-[6-Amino-5-(methoxyimino-methyl)-pyrimidin-4-yl]-piperidin-4-yl}-3-(4-chloro-phenyl)-urea] |
